Measurements: patent publication US11708359B2, “Monoacylglycerol lipase modulators” (Janssen Pharmaceutica NV, priority 2020, dated 2023)
pIC50: −log10 of the molar value.

Biological target: human MGL from HeLa cells (Homo sapiens (Human), UniProt Q99685)
Test: MGL in vitro activity assay ([glycerol-1,3-3H]-oleoyl glycerol cleavage, activated carbon filter)
Assay type: biochemical
Conditions: 300 nM [Glycerol-1,3-3H]-oleoyl glycerol, endogenously expressed MGL from HeLa cells, one hour incubation; read-out: MGL IC50
Outline: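 Endogenous MGL in HeLa cells or homogenates was incubated with compound and 300 nM [glycerol-1,3-3H]-oleoyl glycerol for one hour. Reactions were filtered through activated carbon, and tritiated glycerol in the flow-through was counted as a measure of activity.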

human MGL from HeLa cells, sequence (Q99685 whole entry): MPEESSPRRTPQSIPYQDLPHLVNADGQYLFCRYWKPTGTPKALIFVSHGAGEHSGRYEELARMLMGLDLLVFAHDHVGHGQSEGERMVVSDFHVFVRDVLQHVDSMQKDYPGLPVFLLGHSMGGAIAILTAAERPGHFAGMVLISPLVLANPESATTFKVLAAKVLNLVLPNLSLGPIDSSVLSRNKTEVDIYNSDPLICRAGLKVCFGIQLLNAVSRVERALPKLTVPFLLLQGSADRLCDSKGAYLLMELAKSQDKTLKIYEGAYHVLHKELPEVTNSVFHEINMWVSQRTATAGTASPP

Cc1cc(C2CC2)ccc1C12CCN(C(=O)[C@H]3C[C@]4(COC(=O)N4)C3)CC1C2 (mixture of isomers) [Example 72, (rac)-(2s,4s)-2-(6-(4-Cyclopropyl-2-methylphenyl)-3-azabicyclo[4.1.0]heptane-3-carbonyl)-7-oxa-5-azaspiro[3.4]octan-6-one]
pIC50: 8.68

Cc1c([C@H]2[C@@H]3CN(C(=O)[C@H]4C[C@]5(COC(=O)N5)C4)C[C@@H]32)cccc1C(F)(F)F [Example 113]
pIC50: 7.11

O=C1N[C@]2(CO1)C[C@H](C(=O)N1CC3CC3(c3cccc(C(F)(F)F)c3)C1)C2 (mixture of isomers) [Example 23, (rac)-(2s,4s)-2-(1-(3-(Trifluoromethyl)phenyl)-3-azabicyclo[3.1.0]hexane-3-carbonyl)-7-oxa-5-azaspiro[3.4]octan-6-one]
pIC50: 7.85

O=C1CC[C@]2(C[C@H](C(=O)N3C[C@@H]4[C@H](C3)[C@H]4c3ccc(C(F)(F)F)cc3)C2)N1 [Example 81, (2r,4S)-2-((1R,5S,6S)-6-(4-(Trifluoromethyl)phenyl)-3-azabicyclo[3.1.0]hexane-3-carbonyl)-5-azaspiro[3.4]octan-6-one]
pIC50: 6.69

Cc1cc(C2CC2)ccc1[C@H]1[C@@H]2CN(C(=O)[C@H]3C[C@]4(COC(=O)N4)C3)C[C@@H]21 [Example 109, (2s,4S)-2-((1R,5S,6S)-6-(4-Cyclopropyl-2-methylphenyl)-3-azabicyclo[3.1.0]hexane-3-carbonyl)-7-oxa-5-azaspiro[3.4]octan-6-one]
pIC50: 8.80

O=C1N[C@]2(CO1)C[C@H](C(=O)N1CCC3(c4ccc(C5CC5)cc4)CC3C1)C2 (mixture of isomers) [Example 66, (rac)-(2s,4s)-2-(6-(4-Cyclopropylphenyl)-3-azabicyclo[4.1.0]heptane-3-carbonyl)-7-oxa-5-azaspiro[3.4]octan-6-one]
pIC50: 9.16

Cc1ccc([C@]23CCN(C(=O)[C@H]4C[C@]5(COC(=O)N5)C4)C[C@H]2C3)cc1F (stereo in doubt) [Example 47, (2s,4*R)-2-((1*S,6*R)-6-(3-Fluoro-4-methylphenyl)-3-azabicyclo[4.1.0]heptane-3-carbonyl)-7-oxa-5-azaspiro[3.4]octan-6-one]
pIC50: 7.68

Cc1ccc(C23CC2CN(C(=O)[C@H]2C[C@]4(COC(=O)N4)C2)C3)cc1Cl (mixture of isomers) [Example 30, (rac)-(2s,4s)-2-(1-(3-Chloro-4-methylphenyl)-3-azabicyclo[3.1.0]hexane-3-carbonyl)-7-oxa-5-azaspiro[3.4]octan-6-one]
pIC50: 8.54

CCc1ccc(C23CC2CN(C(=O)[C@H]2C[C@]4(COC(=O)N4)C2)C3)cc1 (mixture of isomers) [Example 94, (rac)-(2s,4s)-2-(1-(4-Ethylphenyl)-3-azabicyclo[3.1.0]hexane-3-carbonyl)-7-oxa-5-azaspiro[3.4]octan-6-one]
pIC50: 8.46

CC(C)c1cccc(C23CCN(C(=O)[C@H]4C[C@]5(COC(=O)N5)C4)CC2C3)c1 (mixture of isomers) [Example 73, (rac)-(2s,4s)-2-(6-(3-Isopropylphenyl)-3-azabicyclo[4.1.0]heptane-3-carbonyl)-7-oxa-5-azaspiro[3.4]octan-6-one]
pIC50: 9.60

CC(C)c1cccc([C@H]2[C@@H]3CN(C(=O)[C@H]4C[C@]5(COC(=O)N5)C4)C[C@@H]32)c1 [Example 84, (2s,4S)-2-((1R,5S,6S)-6-(3-Isopropylphenyl)-3-azabicyclo[3.1.0]hexane-3-carbonyl)-7-oxa-5-azaspiro[3.4]octan-6-one]
pIC50: 8.26

Cc1cc(C23CC2CN(C(=O)[C@H]2C[C@]4(COC(=O)N4)C2)C3)ccc1C(F)(F)F (mixture of isomers) [Example 36, (rac)-(2s,4s)-2-(1-(3-Methyl-4-(trifluoromethyl)phenyl)-3-azabicyclo[3.1.0]hexane-3-carbonyl)-7-oxa-5-azaspiro[3.4]octan-6-one]
pIC50: 8.49

O=C1N[C@]2(CO1)C[C@H](C(=O)N1CC3CC3(c3cccc(C4CC4)c3)C1)C2 (mixture of isomers) [Example 16, (rac)-(2s,4s)-2-(1-(3-Cyclopropylphenyl)-3-azabicyclo[3.1.0]hexane-3-carbonyl)-7-oxa-5-azaspiro[3.4]octan-6-one]
pIC50: 8.25

Cc1cc(OC(F)(F)F)ccc1C12CC1CN(C(=O)[C@H]1C[C@]3(COC(=O)N3)C1)C2 (mixture of isomers) [Example 34, (rac)-(2s,4s)-2-(1-(2-Methyl-4-(trifluoromethoxy)phenyl)-3-azabicyclo[3.1.0]hexane-3-carbonyl)-7-oxa-5-azaspiro[3.4]octan-6-one]
pIC50: 8.51

O=C1N[C@]2(CO1)C[C@H](C(=O)N1CCC3CC3(c3ccccc3)C1)C2 (mixture of isomers) [Example 77, (rac)-(2s,4s)-2-(1-Phenyl-3-azabicyclo[4.1.0]heptane-3-carbonyl)-7-oxa-5-azaspiro[3.4]octan-6-one]
pIC50: 6.62
